Tests used:
human hepatocytes = assay: Hepatocytes stability assay (human hepatocytes); format: in vitro ADME; conditions: hepatic clearance divided by liver blood flow, fu assumed unity
Procedure: (§1) In vitro metabolic stability was assessed using cryopreserved hepatocytes from male Sprague Dawley rats and a pool of 50 mixed gender humans (BioIVT, Baltimore, MD). The incubation mixtures were prepared by mixing 250 μL of pre-warmed KHB (Krebs-Henseleit buffer) containing 2×10^6 cell/mL of hepatocytes with 250 μL of pre-warmed KHB buffer containing 2 μM of test compounds in a 48-well plate, giving a final concentration of 1 μM test compound (0.1% DMSO) and 1×10^6 cell/mL of hepatocytes. The reaction mixture was incubated at 37 degrees C. A 50 μL aliquot of incubation mixture was taken at time points (0, 15, 30, 60, 120 and 240 minutes) and transferred into a 96-well plate containing 300 μL ice-cold acetonitrile (containing 30 ng/mL of labetalol and 10 ng/mL of Naltrexone-d3 as internal standards) and immediately placed in ice to terminate the reaction. Samples were centrifuged, and supernatants were transferred into 96-well plates for liquid chromatography with tandem mass spectrometry (LC-MS/MS) analysis to monitor the depletion of the test compound. Data was calculated as percent remaining by assuming zero-minute time point peak area ratio (analyte/IS) as 100% and dividing remaining time point peak area ratios by zero-minute time point peak area ratio. Data were fitted to a first-order decay model to determine half-life. From a plot of log (ln) peak area against time, the slope of the line was determined. Subsequently, half-life (T1/2) and intrinsic clearance (CLint) were calculated using the equations below: • Elimination rate constant (k)=(−slope) • Half-life (T1/2) min=0.693/k • Intrinsic Clearance (CLint) (mL/min/million cells)=(V×0.693)/T1/2 • V=incubation volume mL/number of cells The in vitro T1/2 was converted to in vitro intrinsic clearance (CLint,hep) in units of mL/min/kg using the formula shown below: The in vitro intrinsic clearance (CLint,hep) was scaled to in vivo hepatic clearance (CL,hep) using the following equation which was adapted from a well-stirred model. [formula] where Q is the liver blood flow and fu is the fraction unbound (assumed to be unity in this case). All parameters used in the calculation are shown below (Table 4). The extraction ratio (ER) was calculated by dividing the hepatic clearance of a compound to the liver blood flow. The data reported in Table 5 were obtained according to the human hepatocytes stability assay described above.

[1] = Hepatocytes stability assay (human hepatocytes); format: in vitro ADME; conditions: both sexes, cryopreserved hepatocytes, 1 μM test compound, 1×10^6 cell/mL, read-out: CLint (μL/min/million cells)
Procedure: as §1

MDR1 = assay: MDCK-MDR1 permeability assay; format: in vitro ADME; conditions: dog, 3 μM test compound; for efflux ratio at 2 h, 3 μM: Papp (B→A) divided by Papp (A→B), read-out: Efflux ratio (ER); for Papp A→B at 2 h, 3 μM: apical to basolateral, 2 hours at 37 degrees C
Procedure: The bidirectional permeability (Apical to Basal and Basal to Apical directions) of test compounds in MDCK-MDR1 cells were evaluated using MDCK-MDR1 cells seeded in Solvo PreadyPort™ MDCK 96-well plate. Once the plate was received from ReadyCell (Barcelona, Spain), it was treated as per PreadyPort™ user's manual.
For the Apical to Basolateral (A→B) permeability, 80 μL of test compound (3 μM) co-dosed with LY (Lucifer Yellow) (100 μM) in HBSS (Hank's Balanced Salt Solution) assay buffer was added to the donor side (A) while 250 μL of HBSS buffer was added to the receiver side (B). For the Basolateral to Apical (B→A) permeability, 255 μL of test compound (3 μM) in HBSS assay buffer was added to the donor side (B) while 75 μL of HBSS buffer containing LY (100 μM) was added to the receiver side (A).
The plate was placed in an incubator set at 37 degrees C. After 10 minutes of pre-warming, 5 μL aliquot was taken from donor compartment and set aside as the dosing solution. The MDCK-MDR1 incubation plate was placed back into the incubator for 2 hours of incubation at 37 degrees C. After 2 hours of incubation, 25 μL and 5 μL aliquots were removed from the receiver and donor sides, respectively. To the 5 μL aliquots taken from the donor sides (before and after a 2-hour incubation) were diluted with 20 μL of the HBSS buffer. All samples were mixed with 150 μL with acetonitrile containing internal standard (IS) and 200 μL water, and analyzed by LC-MS/MS.
The apparent permeability (Papp) was calculated using the following formula: Papp=dQ/dt×1/A×C0 where: • dQ/dt: amount of translocated material over incubation time (nmol/s) • A: area of insert (0.14 cm^2 for PreadyPort™ MDR1-96) • C0: initial concentration of product applied in apical (A→B) or basal (B→A) compartment (nmol/mL).
The efflux ratio (ER) was measured by dividing the Papp (basolateral to apical direction) by Papp (apical to basolateral direction). It is a general measure of the involvement of active processes. An ER >2 is considered positive for active transport.
The data reported in Table 3 were obtained according to the MDCK-MDR1 permeability assay described above.

[2] = biological target: T1, human orexin-2 receptor (OX2R) (Homo sapiens, UniProt O43614); assay: Human OX2R IP1 assay; format: cell-based; conditions: T-Rex CHO cells stably overexpressing human OX2R; IP1 accumulation, 1 hr at 37 degrees C
T1 construct: expressed in transfected cells
T1 sequence (O43614 1-444): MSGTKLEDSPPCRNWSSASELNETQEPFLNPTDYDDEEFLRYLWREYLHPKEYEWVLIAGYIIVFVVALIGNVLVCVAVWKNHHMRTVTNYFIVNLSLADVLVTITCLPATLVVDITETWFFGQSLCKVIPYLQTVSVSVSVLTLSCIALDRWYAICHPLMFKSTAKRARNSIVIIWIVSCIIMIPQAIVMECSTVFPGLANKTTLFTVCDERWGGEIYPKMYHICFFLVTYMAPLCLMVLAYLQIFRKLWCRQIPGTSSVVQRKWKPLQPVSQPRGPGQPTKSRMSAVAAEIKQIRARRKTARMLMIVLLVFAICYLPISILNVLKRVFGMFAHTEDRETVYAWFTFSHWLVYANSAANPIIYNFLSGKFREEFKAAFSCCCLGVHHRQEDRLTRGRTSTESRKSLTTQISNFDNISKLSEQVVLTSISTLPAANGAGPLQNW
Procedure: T-Rex CHO cells stably overexpressing the human orexin-2 receptor (OX2R) were induced overnight with 1 μg/mL of doxycycline in a T225 flask. 24 hours post induction, cells were lifted with accutase and plated into a 384-well proxy plate at 30,000 cells/well. Cells were then treated with different test compounds in 1× stimulation buffer containing 10 mM Hepes, 1 mM CaCl2), 0.5 mM MgCl2, 4.2 mM KCl, 146 mM NaCl, 5.5 mM glucose, and 50 mM LiCl, pH 7.4, for 1 hr at 37 degrees C. Following incubation, the reaction was terminated by the addition of detection mix, which is composed of IP1-d2 and anti-IP1-cryptate diluted in lysis buffer as well as 1× stimulation buffer. The plates were allowed to incubate for 1 hour at room temperature and were then read in the EnVision® multimode plate reader, measuring inositol phosphate levels.
Cisbio IP1 is a cell-based functional assay quantifying the accumulation of inositol monophosphate (IP), a metabolite released as a result of orexin 2 receptor activation through the phospholipase C-Gq signaling pathway. This is a competitive immunoassay in which the IP1 produced by the cells upon receptor activation competes with the IP1 analog coupled to the d2 fluorophore (acceptor) for binding to an anti-IP1 monoclonal antibody labeled with Eu cryptate (donor). The measured HTRF-FRET based signal is inversely proportional to the IP1 concentration produced.
The EC50 values reported in Table 2 were obtained according to the human OX2R IP1 assay described above. Data are the mean EC50 values±S.E.M. The compound methyl (2R,3S)-3-((methylsulfonyl)amino)-2-(((cis-4-phenylcyclohexyl)oxy)methyl)-piperidine-1-carboxylate (sometimes referred to herein as Reference Compound A) is a reference compound which is disclosed in Example 5 of PCT publication no. WO2017/135306.

Sprague-Dawley rats = assay: Assessment of wake promotion in Sprague-Dawley rats (EEG/EMG); format: in vivo, rat; conditions: 3 mpk, male Sprague-Dawley rats, 6-hour post-dose period
Procedure: Wake promotion was assessed using electroencephalography (EEG) and electromyography (EMG) in adult male Sprague-Dawley rats. All rats (Charles River Laboratories, Raleigh, NC, USA) were intraperitoneally implanted with telemetry devices (F50-EEE, Data Sciences International Inc., MN, USA) under isoflurane anesthesia. For EEG, stainless steel screws were implanted over frontal cortex and parietal cortex, and reference screws were placed over cerebellum. Additionally, an electrode was placed in neck muscle for EMG. Rats were given carprofen post-surgery and underwent a 7 to 10-day recovery period. Rats habituated to the experimental room for 7 days and were maintained on a 12-hour light-dark cycle.
EEG and EMG data were recorded using the DSI telemetry system and Ponemah software (Data Sciences International Inc., MN, USA). Sleep-wake stages were scored both manually and with Somnivore, a supervised machine learning software platform, in 10 second epochs. Records were visually inspected as needed post-processing.
All test compounds were dissolved in 5% DMSO and suspended in 95% saline with 0.5% methylcellulose and 0.5% tween. […] Unless otherwise indicated, all compounds were dosed orally. Recordings for each rat were initiated immediately after dosing and lasted for 6 hours post-dose.
Two key endpoints include wakefulness time and cortical activation time. […]

Row | Structure (SMILES) | Extraction Ratio (ER) (human hepatocytes) | hepatocyte CLint at 1 μM [1] [µL/min/1e6 cells] | efflux ratio at 2 h, 3 μM (MDR1) | Papp A→B at 2 h, 3 μM (MDR1) [×10⁻⁶ cm/s] | EC50 [2] [nM] | Mean cortical activation time (% vehicle treatment) (Sprague-Dawley rats; PO) | Mean cortical activation time (% vehicle treatment) (Sprague-Dawley rats; SC)
1 | CS(=O)(=O)N[C@H]1CCN(c2ccccn2)CC1COC1CCN(c2ncccn2)CC1 (stereo partly shown) [Compound 1] | 0.82 | 31 | 12 | 2.7 | > 1000 | – | –
2 | CS(=O)(=O)N[C@H]1CCN(c2ccccn2)C[C@H]1CO[C@H]1CC[C@@H](c2cccc(F)c2)CC1 [Compound 6] | 0.87 | 44 | 2.8 | 1.3 | < 100 | – | –
3 | C[C@@H](c1ccccc1)N1CC[C@H](NS(C)(=O)=O)C(COC2CCC(c3ccccc3)CC2)C1 (stereo partly shown) [Compound 37] | 0.94 | 99 | 12 | 0.38 | > 1000 | – | –
4 | C[C@H](c1ccccc1)N1CC[C@H](NS(C)(=O)=O)C(COC2CCC(c3ccccc3)CC2)C1 (stereo partly shown) [Compound 38] | 0.93 | 91 | 3.2 | 0.74 | > 1000 | – | –
5 | O=S(=O)(N[C@H]1CCN(c2ccccn2)C[C@H]1CO[C@H]1CC[C@@H](c2ccccc2)CC1)C(F)(F)F [Compound 53] | – | – | – | – | < 100 | 105.00 | –
6 | COC(=O)N1CCC[C@H](NS(C)(=O)=O)[C@@H]1CO[C@H]1CC[C@@H](c2ccccc2)CC1 [Reference Compound A, methyl (2R,3S)-3-((methylsulfonyl)amino)-2-(((cis-4-phenylcyclohexyl)oxy)methyl)-piperidine-1-carboxylate, reference compound] | 0.92 | – | – | – | < 100 | – | 118.75

Reference: US12441710B2, “Substituted piperidino compounds and related methods of treatment” (Alkermes, Inc., priority 2020, dated 2025)
